Experimental data from publication PMC7930822, “Phase I Trial to Evaluate the Tolerance, Pharmacokinetics and Efficacy of the Broad-Spectrum ErbB Family Inhibitor Larotinib Mesylate in Patients With Advanced Solid Tumors” (Frontiers in Pharmacology, 2021).
Counter-ions that a name gives are not always drawn.

Columns and labels:
[1] = system: EGFR with the L861Q mutation; set-up: method as in data not published; conditions: ref data not published; cited from earlier work
CYP3A4 = system: CYP3A4; set-up: method as in data not published; conditions: in vitro studies; ref data not published; cited from earlier work
[2] = molecular target: B-lymphoid tyrosine kinase (BLK); set-up: method as in data not published; conditions: ref data not published; cited from earlier work
P-glycoprotein = conditions: cited from earlier work
tumor-bearing mice [3] = system: tumor-bearing mice; set-up: method as in data not published; conditions: dose of 18 mg/kg, ref data not published; cited from earlier work
HER2 = system: HER2; set-up: method as in data not published; conditions: ref data not published; cited from earlier work
HER4 = system: HER4; set-up: method as in data not published; conditions: ref data not published; cited from earlier work
[4] = system: patients with advanced solid tumors; assay: phase I safety and tolerance (NCI CTCAE version 4.03, DLTs); type: in vivo, human
Protocol: This was a phase I, single-center, open-label, dose-escalation study conducted at First Hospital of Jilin University, China (registration no.: ChiCTR-OPC-15007153 registered at http://www.chictr.org.cn). Larotinib mesylate hard capsules were produced and supplied by Sunshine Lake Pharma Co., Ltd (Guangdong Province, China) in different unit doses of […] under GMP condition. Seven dose levels were designed in the study: 50, 100, 150, 220, 300, 350, and 400 mg with administration stages labeled cycle 0, cycle 1, and subsequent treatment cycles. Patients received an oral single dose of larotinib mesylate after fasting during a 6-days cycle 0 to evaluate the tolerance and pharmacokinetic characteristics. After cycle 0, larotinib mesylate was continuously administered once daily for 28 days in cycle 1, and the tolerance and pharmacokinetic characteristics of multiple doses were evaluated (Figure 2). The patients who […] disease control (complete response [CR], partial response [PR], or stable disease [SD]) at the end of cycle one were permitted to participate in the subsequent 28-days treatment cycles until progressive disease (PD) or intolerance was observed.
We enrolled three to six patients for each dose level, with the goal of having at least three patients complete the cycle 0 and cycle 1 treatments. We made an enrollment regulation for the extra patients (>3) according to the study stage of the last enrolled patient in the present dose level: If the patient had finished cycle 1 day 22, extra screened patients would be enrolled to the next dose level; if not, the current dose level would be selected. If 1/3 of patients experienced a DLT in cycle 0 or cycle 1, expansion to six patients was required for the current dose level.
DLTs were observed according to the NCI CTCAE version 4.03 and defined as the emergence of any of the following drug-related AEs: hematological toxicity including Grade ≥3 neutropenia or thrombocytopenia and other Grade ≥4 hematological toxicity; nonhematological toxicities including Grade ≥2 atrioventricular block or renal injury; Grade ≥2 nausea, emesis, or diarrhea for ≥7 days despite optimal treatment; Grade ≥3 nausea, emesis, diarrhea, or rash despite supportive care; and alanine aminotransferase (ALT) or aspartate aminotransferase (AST) elevation by more than 5 times the upper limits of normal for ≥7 days and other Grade ≥3 nonhematological toxicities.
Safety was assessed according to the NCI CTCAE version 4.03 including AEs, vital signs, and results from 12-lead […], cardiac ultrasound, physical examination, ophthalmic testing, and clinical laboratory tests. Dosage adjustments could be applied from cycle 2 according to the severity of the toxicities. Drug administration would be suspended when drug-related AEs were graded at 3 or 4, and the original dose or reduction dose would be given if the AEs returned to baseline or Grade 1 (nonhematological toxicities)/grade 2 (hematological toxicities) within 14 days.

tumor-bearing mice [5] = assay: preclinical pharmacodynamic study in tumor-bearing mice; type: in vivo; conditions: from effective dose of 18 mg/kg in tumor-bearing mice, by body surface area
Protocol: Animal toxicology studies of larotinib mesylate were conducted in both Sprague–Dawley rats and beagle dogs. […] The maximal tolerable doses (MTDs) were 20 and 25 mg/kg in Sprague–Dawley rats and beagle dogs, respectively.
According to the guidance for clinical trials of antitumor agents published by the Center for Drug Evaluation and Research in China, for cytotoxic antitumor agents, the initial dose in a phase I study can be calculated as 1/10 of the MTD in rodents or 1/6 of the MTD in non-rodent animals ([CFDA, 2012]). For non-cytotoxic antitumor agents, because of their relatively lower toxicity, the initial dose can be set higher. According to the reported preclinical results for larotinib mesylate, the MTD in Sprague–Dawley rats translated to a human equivalent dose of 192 mg/d according to body surface area (calculated by 60 kg body weight), for which 1/10 is 19.2 mg/d ([FDA, 2005]). […] Taking the above results for the toxicology, preclinical pharmacology and pharmacodynamics, and drug specifications (10, 50 and 100 mg) of larotinib mesylate into account, we calculated a recommended starting dose of 50 mg larotinib mesylate for a phase I, first-in-human clinical study, lower than human equivalent 1/6 MTD translated from beagle dogs and near the human equivalent effective dose translated from tumor-bearing mice. […]

Compound: COc1cc2ncnc(Nc3ccc(F)c(Cl)c3)c2cc1OCCCN1C[C@@H]2OCCO[C@@H]2C1 [larotinib mesylate]
- IC50 [1]: 0.423 nM
- fraction metabolized by CYP3A4 (CYP3A4): around 85%
- IC50 [2]: 102 nM
- P-glycoprotein substrate (P-glycoprotein): substrate of P-glycoprotein
- tumor-inhibiting rate (tumor-bearing mice [3]): exceeding 60%
- IC50 (HER2): 253 nM
- IC50 (HER4): 84 nM
- MTD in patients ([4]; 50–400 mg/d oral): no MTD established
- Grade 3 drug-related decreased lymphocytes ([4]; human, in vivo): 12%
- Grade 3 drug-related diarrhea ([4]; human, in vivo): 4%
- Grade 3 drug-related nausea ([4]; human, in vivo): 4%
- drug-related acne-like rash, incidence ([4]; human, in vivo): 68.0%
- drug-related anemia, incidence ([4]; human, in vivo): 48.0%
- drug-related decreased lymphocyte percentage, incidence ([4]; human, in vivo): 40.0%
- drug-related diarrhea, incidence ([4]; human, in vivo): 48.0%
- drug-related hand-foot skin reaction, incidence ([4]; human, in vivo): 44.0%
- drug-related hypoalbuminemia, incidence ([4]; human, in vivo): 32.0%
- drug-related nausea, incidence ([4]; human, in vivo): 36.0%
- drug-related paronychia, incidence ([4]; human, in vivo): 48.0%
- drug-related stomatitis, incidence ([4]; human, in vivo): 44.0%
- drug-related weight loss, incidence ([4]; human, in vivo): 32.0%
- patients with Grade 3 drug-related AEs ([4]; human, in vivo): 20%
- patients with at least one drug-related AE ([4]; human, in vivo): 96%
- human equivalent effective dose (tumor-bearing mice [5]): 86.4 mg/day
